Reference: patent US11161803B2, “Ammonium carboxylate compound, crystalline form, amorphous form and preparation method thereof” (priority 2017, dated 2021)
Structures can show the parent of a compound that is named as a salt.

How the values were obtained:
Assay type in all cases: physicochemical
[1] = Water adsorption and desorption test (DVS, hygroscopicity); conditions: 25° C.; for change of hygroscopicity: under 80% humidity
Protocol: DVS detection of the ammonium salt: instrument model: TA Q5000SA, balance at 25° C., humidity start from 0.00%, balance for 180 min, balance for 15 min when the weight gain is less than 0.01%, 10% gradient humidity increase from 0.00% to 90.00%, each gradient maintained for 120 min; a 10% gradient humidity reduction procedure performed when the humidity is from 90.00% to 0.00%, each gradient maintained for 120 min.
DVS detection of other products: instrument model: SMS DVS Intrinsic, 0-95% RH, temperature: 25° C.
The water adsorption and desorption tests of the compound (A) of example 1 at 25° C., 0 to 95% relative humidity were carried out by a dynamic water adsorber (DVS) to determine the hygroscopicity of the compound of formula (A).
The water adsorption and desorption experiments of the crystalline form I of the compound of formula (A) prepared by methods of example 3 at 25° C., 0 to 95% relative humidity were carried out by a dynamic water adsorber (DVS) to determine the hygroscopicity of the crystalline form I of the compound of formula (A).
The water adsorption and desorption experiments of the sample of example 6 at 25° C., 0 to 95% relative humidity were carried out by a dynamic water adsorber (DVS) to determine the hygroscopicity of the amorphous form of the compound of formula (A).

[2] = Solid form and hygroscopicity of the salts as obtained (comparative examples); conditions: for hygroscopicity (in words) / solid form (in words): product as obtained
Protocol: (§1) A crude product of ethyl (2R,4S)-5-(biphenyl-4-yl)-4-[(3-carboxypropionyl)amino]-2-methylpentanoate (52.4 g, 0.125 mol) and acetone (629 ml) were added to a 1 L three-necked flask equipped with a mechanical stirrer, stirred and dissolved at room temperature; cooled to 0-10° C. for 5-10 min, added dropwise with potassium hydroxide solution (25 ml, 5 mol/L), after the addition was completed, kept stirring for 1 h, concentrated to dryness, added with methanol (125 ml) or ethanol (125 ml), concentrated to dryness to give potassium 4((2S,4R)-1-([1,1′-biphenyl]-4-yl)-5-ethoxy-4-methyl-5-oxopentan-2-yl)amino)-4-oxobutanoate (AHU-377 potassium salt).
as §1, with “min and” for “min,”, “sodium” for “potassium”, “sodium 4-(((2S,4R)-1-([1,1′-biphenyl]-4-yl)-5-ethoxy-4-methyl-5-oxopentan-2-yl)amino)-4-oxobutyrate” for “potassium 4((2S,4R)-1-([1,1′-biphenyl]-4-yl)-5-ethoxy-4-methyl-5-oxopentan-2-yl)amino)-4-oxobutanoate”
A crude product of ethyl (2R,4S)-5-(biphenyl-4-yl)-4-[(3-carboxypropionyl)amino]-2-methylpentanoate (52.4 g, 0.125 mol) and acetone (629 ml) were added to a 1 L three-necked flask equipped with a mechanical stirrer, stirred and dissolved at room temperature: cooled to 0-10° C. for 5-10 min and added dropwise with a basic ammonium salt such as choline (15 g, 0.125 mol), after the addition was completed, kept stirring for 1 h, concentrated to dryness, added with methanol (125 ml) or ethanol (125 ml), and concentrated to dryness.

[3] = Stability comparison test (main peak purity of the samples on storage); conditions: for decrease of purity: at 25° C. 60 days later
Protocol: Each portion was about 100 mg, placed in a zip-lock bag and added with a desiccant, then three-layer packaged by a two-layer aluminum plastic material with each layer vacuumed, and stored at 25° C. (relative humidity 60%) and 40° C. […] Relevant substances of the samples were respectively determined at 0 day, 30 days, and 60 days later.

[4] = as above; conditions: at 60° C. 60 days later (so in the source)
[5] = Drug interaction test: stability of the mixture of crystalline form I of the compound of formula (A) + compound of formula (B)
Excerpt: The applicant has found through repeated studies in the research of drug compatibility that the compound of formula (A), the crystalline form I, single crystal, amorphous form, crystalline form II thereof have good compatibility with the compound of formula (I) described in CN103709154A. A specific compound of formula (B) was selected to be mixed with the crystalline form I of the compound of formula (A) prepared in example 3 of the present disclosure for further stability studies.

[6] = 25° C. (relative humidity 60%), test time 0 day
[7] = 25° C. (relative humidity 60%), test time 30 days
[8] = 25° C. (relative humidity 60%), test time 60 days
[9] = 40° C. (relative humidity 75%), test time 0 day
[10] = 40° C. (relative humidity 75%), test time 30 days
[11] = 40° C. (relative humidity 75%), test time 60 days

SMILES | main peak purity [3, 6] [%] | main peak purity [3, 7] [%] | main peak purity [3, 8] [%] | main peak purity [3, 9] [%] | main peak purity [3, 10] [%] | main peak purity [3, 11] [%] | decrease of purity [3] | decrease of purity [4] [%] | hygroscopicity (in words) [2] | solid form (in words) [2] | also measured
CCOC(=O)C(C)CC(Cc1ccc(-c2ccccc2)cc1)NC(=O)CCC(=O)O (stereo not shown) [crystalline form I of the compound of formula (A)] |  |  |  |  |  |  |  |  |  |  | change of hygroscopicity ([1]; DVS): do not change much; hygroscopicity compared with AHU-377 sodium salt and AHU-377 potassium salt [2]: significantly more hygroscopic
CCOC(=O)C(C)CC(Cc1ccc(-c2ccccc2)cc1)NC(=O)CCC(=O)O [Compound of formula (A), ammonium 4-((2S,4R)-1-([1, l′-biphenyl]-4-yl)-5-ethoxy-4-methyl-5-oxopentan-2-yl)amino)-4-oxobutanoate] | 99.82 | 99.80 | 99.82 | 99.82 | 99.68 | 99.58 | almost unchanged | 0.24 |  |  | stability compared with the potassium salt and the sodium salt of AHU-377 [3]: far superior; stability compared with the organic ammonium salt of AHU-377 ([3]; by comparison in the same experiment): superior; hygroscopicity ([1]; DVS, 0 to 95% relative humidity, FIG. 26): less than 2%
CCOC(=O)[C@H](C)C[C@@H](Cc1ccc(-c2ccccc2)cc1)NC(=O)CCC(=O)[O-].[Na+] [AHU-377 sodium salt, sodium 4-(((2S,4R)-1-([1,1′-biphenyl]-4-yl)-5-ethoxy-4-methyl-5-oxopentan-2-yl)amino)-4-oxobutyrate] | 94.12 | 94.16 | 93.75 | 94.12 | 94.06 | 93.86 | 0.37% | 0.26 | highly hygroscopic despite less hygroscopic than potassium salt | does not exhibit a good solid form | 
CCOc1nc2cccc(C(=O)OC(C)OC(=O)OCc3nc(C)c(C)nc3C)c2n1Cc1ccc(-c2ccccc2-c2noc(=O)[n-]2)cc1.[K+] (stereo not shown) [Formula (B)] |  |  |  |  |  |  |  |  |  |  | stability of the potassium salt of formula (B) in the mixture with crystalline form I compared with formula (B) as a single component [5]: superior; Maximum unknown single impurity ([5]; test time 0 day): 0.05%; Total impurities ([5]; test time 0 day): 0.72%; Maximum unknown single impurity ([5]; test time 30 days): 0.05%; Total impurities ([5]; test time 30 days): 1.29%; Maximum unknown single impurity ([5]; test time 60 days): 0.06%; Total impurities ([5]; test time 60 days): 1.67%; Maximum unknown single impurity ([5]; test time 90 days): 0.04%; Total impurities ([5]; test time 90 days): 1.99%
CCOC(=O)C(C)CC(Cc1ccc(-c2ccccc2)cc1)NC(=O)CCC(=O)O (stereo not shown) [crystalline form II] |  |  |  |  |  |  |  |  |  |  | change of hygroscopicity ([1]; DVS): changes very little
CCOC(=O)[C@H](C)C[C@@H](Cc1ccc(-c2ccccc2)cc1)NC(=O)CCC(=O)O [AHU-377 potassium salt] | 93.63 | 93.31 | 93.28 | 94.11 | 94.05 | 93.37 | 0.35% | 0.74 | highly hygroscopic | failed to exhibit a good solid form | 
CCOC(=O)[C@H](C)C[C@@H](Cc1ccc(-c2ccccc2)cc1)NC(=O)CCC(=O)O [organic ammonium salt of 4 ((2S,4R)-1-([1,1′-biphenyl]-4-yl)] |  |  |  |  |  |  |  |  | high hygroscopicity | cannot be obtained in a solid form | 
CCOC(=O)C(C)CC(Cc1ccc(-c2ccccc2)cc1)NC(=O)CCC(=O)O (stereo not shown) |  |  |  |  |  |  |  |  |  |  | change of the form in DVS ([1]; range of 0 to 95% relative humidity, FIG. 15): do not change
